# Measured values taken from patent US20240165259A1, “BIOORTHOGONAL REACTION SUITABLE FOR CLICK/UNCLICK APPLICATIONS” (DANA-FARBER CANCER INSTITUTE, INC., priority 2021, published 2024).
# System: cell surface HaloTag-GFP expressed on HEK293T cells
# Assay: Live cell labeling experiment (confocal microscopy)
# Format: cell-based
# Details: 10 μM 21′, then 10 μM 22′ for 1 hour, fixed
# Method: Live cell labeling by hydroamination was explored. HEK293T cells were transiently transfected with a cell surface HaloTag-GFP construct, treated with 10 μM HaloTag linker-conjugated difluoropropargyl ether 21′, washed, and incubated with 10 μM TAMRA-conjugated hydroxylamine 22′ for 1 hour. The cells were then fixed and visualized by confocal microscopy.
# Cell Culture: HEK-293T cells were cultured in Dulbecco's Modified Eagle Medium (DMEM, Corning®) containing 10% fetal bovine serum (FBS, Sigma), 100 units/mL penicillin, and 0.1 mg/mL streptomycin (Sigma) in a humidified chamber at 37° C. with 5% CO2. Cells were passaged and dissociated with 0.25% trypsin, 0.1% EDTA in HBSS (Corning®). Cells tested negative for […] by the MycoAlert PLUS Mycoplasma Detection Kit (Lonza) following the manufacturer's protocol.
# Preparation for 12-Well Plate: Coverslips (15 mm circle, thickness 0.13-0.17 mm) were acid-washed according to the Cold Spring Harbor protocol (Fischer et al., Cold Spring Harb. Protoc. 2008:pdb.prot4988 (2008)). A coverslip was added to each well in a 12-well plate followed by an aqueous solution of poly-D-lysine (0.1 mg/mL, 30-70 kDa, 800 μL). The plate was gently shaken to distribute the solution evenly, incubated at room temperature for 1 hour, washed using 1 mL of autoclaved deionized water for each well, and dried overnight. […]
compound,measurement,value
"CN(O)CCOCCNC(=O)c1ccc2c(c1)C1(OC2=O)c2ccc(N(C)C)cc2Oc2cc(N(C)C)ccc21 [compound 13, 3′,6′-bis(dimethylamino)-N-(2-(2-(hydroxy(methyl)amino)ethoxy)ethyl)-3-oxo-3H-spiro[isobenzofuran-1,9′-xanthene]-6-carboxamide]",live cell labeling (TAMRA signal),localized at the cell surface and co-localized with the GFP signal of transfected cells
